This note sets out measurements from US12378268B2, “Heterocyclic THR-β receptor agonist compound and preparation method and use therefor” (Hepagene Therapeutics (HK) Limited, priority 2019, dated 2025).

Data set [1] is described as follows: Drug metabolism experiment on prodrug in SD rats: plasma pharmacokinetic parameters. In kind it is in vivo. The following applies: for concentration of prodrug in plasma / transformation of prodrug into the active parent drug after oral administration: oral 3 mg/kg, in words. As for the experimental part:
(§1) Test 3: Drug metabolism experiment on prodrug in SD rats
(§2) In the experiment, […] of 12 male SD rats having similar body weights were selected and orally administered compound 9, compound 10, and the control drug VK2809 (the prodrug of MB07444, structured as shown below) at a dose of 3 mg/kg at a single time, respectively, and blood and liver samples were collected at different time points.
(§3) Solutions of compound 9/compound 10 and VK2809 with a final concentration of 0.6 mg/mL were respectively prepared, and the ratio between the solvents used for the preparation was PEG400: pure water =50:50 (v/v).
(§4) No randomization was performed. The weights of the animals were measured before administration, and healthy animals with similar body weights were selected for inclusion in the experiment. The oral dose was 3 mg/kg.
(§5) At least 0.2 mL of blood was collected from the tail vein or jugular vein, and heparin sodium was used as the anticoagulant.
15 min, 30 min, 1 h, 2 h, 4 h, 6 h, 8 h, 24 h after administration.
(§6) After being collected, a blood sample was placed in a marked ice-water bath centrifuge tube, plasma was quickly separated by centrifugation under centrifugation conditions: 3500 rpm, 10 minutes, and 4° C., and the plasma was stored under −40° C. for testing.
(§7) Q TRAP6500 mass spectrometer with ESI source was used to perform negative ion MRM scanning. An LC-MS/MS analysis method was used to detect the contents of compound 9, compound 10 and its active metabolite 1, VK2809 and its active metabolite MB07444 in the plasma and liver. The metabolic kinetics data analysis software WinNonlin 7.0 was used to calculate the concentration data of plasma, and the non-compartmental model (NCA) method was used to calculate the pharmacokinetic parameters.

A short description of data set [2]: Drug metabolism experiment on prodrug in SD rats: concentration in liver compared with blood. The data set is classed as in vivo. The following applies: SD rats; for transformation of prodrug into active metabolite 1 in the liver: oral 3 mg/kg, in words; for Kp at 1 h / Kp at 4 h / Kp at 8 h / concentration at 1 h / concentration at 4 h / concentration at 8 h: male, rat, po, 3 mg/kg; for Kp at 1 h / Kp at 4 h / Kp at 8 h: read-out: Liver-to-blood ratio. As for the experimental part: as §1, §2, §3, §4, §5, §6
After the liver sample was collected, its surface was washed with normal saline, dried with medical gauze, placed in a labeled small ziplock bag, and stored under −40° C. for testing.
as §7
The parameters of concentration in the livers of the SD rats and a comparison with the concentration in plasma are shown in Table 3 below: […]

[3] abbreviates: plasma, oral 3 mg/kg Compound 9.
The mark [4] stands for this setting: male, Sprague-Dawley (SD), rat, plasma, po, 3 mg/kg, oral 3 mg/kg Compound 10.
The mark [5] stands for this setting: male, Sprague-Dawley (SD), rat, plasma, po, 3 mg/kg, oral 3 mg/kg VK2809.

Molecules are shown by their SMILES. Like-named read-outs stand apart in the source and are kept apart here.

By Cmax is commonly meant the peak of the concentration-time curve. In the case of `Cc1cc(OC[P@@](=O)(N[C@@H](C)C(=O)OC(C)C)Oc2ccccc2)cc(C)c1Cc1ccc(O)c2c1CCC2(C)C` [Compound 9], in data set [1], the “concentration of prodrug in plasma” value was “not high” and the “transformation of prodrug into the active parent drug after oral administration” value is “quickly transformed into the active parent drug compound 1”. Besides, in data set [1] (setting [3]), the “AUC0−t” value is on record as “BLQ”, the “AUC0−∞” value was “BLQ” and the Cmax entry was “BLQ”. Moreover, in data set [2] (1 h, oral 3 mg/kg Compound 9), the “Ct Blood” value is “BLQ” and the “Ct Liver” value was “BLQ”. Also, in data set [2] (4 h, oral 3 mg/kg Compound 9), the “Ct Blood” value is listed as “BLQ” and the “Ct Liver” value is “BLQ”. In addition, in data set [2] (8 h, oral 3 mg/kg Compound 9), the “Ct Blood” value is listed as “BLQ” and the “Ct Liver” value was “BLQ”. Moreover, in data set [2] (24 h, oral 3 mg/kg Compound 9), the “Ct Blood” value was “BLQ” and the “Ct Liver” value is reported as “BLQ”. In addition, in data set [2], the “transformation of prodrug into active metabolite 1 in the liver” value is “rapidly metabolized in the liver to produce active metabolite compound 1”.
The AUC(0-inf) is the area under the concentration-time curve extrapolated to infinity. A word on the AUC(0-t): it is exposure summed from dosing to a finite time, without extrapolation to infinity. The Tmax is the time at which the peak concentration occurs. A word on the half-life: it is the time in which the quantity being followed falls by half. Regarding `Cc1cc(OC[P@@]2(=O)OCC[C@@H](c3cccc(Cl)c3)O2)cc(C)c1Cc1ccc(O)c2c1CCC2(C)C` [Compound 10], in data set [1] (setting [4]), the area under the curve AUC(0-inf) came out at 89.3 ng·h/mL, the AUC(0-t) turned out to be 69.2 ng·h/mL, the Tmax was found to be 4.67 h and the half-life is 1.73 h. Moreover, the highest concentration (Cmax) in data set [1] (male, Sprague-Dawley (SD), rat, plasma, po, 3 mg/kg, plasma, oral 3 mg/kg Compound 10, read-out: Cmax) was 19.9 ng/mL. In data set [1], the “concentration of prodrug in plasma” value is “not high” and the “transformation of prodrug into the active parent drug after oral administration” value was “quickly transformed into the active parent drug compound 1”. Besides, in data set [1] (plasma, oral 3 mg/kg Compound 10), the Kel was 0.428 h⁻¹. For the same compound, in data set [2] (24 h, oral 3 mg/kg Compound 10), the “Ct Blood” value is “BLQ” and the “Ct Liver” value is recorded as “BLQ”. Moreover, in data set [2], the “transformation of prodrug into active metabolite 1 in the liver” value is on record as “much better than that of VK2809”. The Kp at 1 h in data set [2] (Sprague-Dawley (SD), liver / plasma (heading prints blood), 1 h, oral 3 mg/kg Compound 10) came to 16.2. In addition, the Kp at 4 h in data set [2] (Sprague-Dawley (SD), liver / plasma (heading prints blood), 4 h, oral 3 mg/kg Compound 10) was 7.8. The Kp at 8 h in data set [2] (Sprague-Dawley (SD), liver / plasma (heading prints blood), 8 h, oral 3 mg/kg Compound 10) was 4.7. For the same compound, in data set [2] (Sprague-Dawley (SD), liver, 1 h, oral 3 mg/kg Compound 10, read-out: Ct Liver), the concentration at 1 h was determined as 141 ng/g. In addition, the concentration at 4 h in data set [2] (Sprague-Dawley (SD), liver, 4 h, oral 3 mg/kg Compound 10, read-out: Ct Liver) is 273 ng/g. The concentration at 8 h in data set [2] (Sprague-Dawley (SD), liver, 8 h, oral 3 mg/kg Compound 10, read-out: Ct Liver) amounted to 46.5 ng/g. Also, in data set [2] (Sprague-Dawley (SD), plasma (heading prints blood), 1 h, oral 3 mg/kg Compound 10, read-out: Ct Blood), the concentration at 1 h is 8.8 ng/g. The concentration at 4 h in data set [2] (Sprague-Dawley (SD), plasma (heading prints blood), 4 h, oral 3 mg/kg Compound 10, read-out: Ct Blood) worked out at 7.9 ng/g. Besides, the concentration at 8 h in data set [2] (Sprague-Dawley (SD), plasma (heading prints blood), 8 h, oral 3 mg/kg Compound 10, read-out: Ct Blood) stood at 10.3 ng/g.
Regarding `Cc1cc(OC[P@@]2(=O)OCC[C@@H](c3cccc(Cl)c3)O2)cc(C)c1Cc1ccc(O)c(C(C)C)c1` [VK2809, reference compound], in data set [1] (setting [5]), the AUC(0-inf) is 83.3 ng·h/mL, the AUC(0-t) worked out at 43.6 ng·h/mL, the Tmax was found to be 6 h and the half-life is 4.81 h. Moreover, the maximum concentration (Cmax) in data set [1] (male, Sprague-Dawley (SD), rat, plasma, po, 3 mg/kg, plasma, oral 3 mg/kg VK2809, read-out: Cmax) was 9.9 ng/mL. Also, the Kel in data set [1] (plasma, oral 3 mg/kg VK2809) turned out to be 0.273 h⁻¹. In data set [2] (24 h, oral 3 mg/kg VK-2809), the “Ct Blood” value is given as “BLQ” and the “Ct Liver” value is reported as “BLQ”. The concentration at 1 h in data set [2] (Sprague-Dawley, liver, 1 h, oral 3 mg/kg VK-2809, read-out: Ct Liver) stood at 39 ng/g. Further, the concentration at 4 h in data set [2] (Sprague-Dawley, liver, 4 h, oral 3 mg/kg VK-2809, read-out: Ct Liver) worked out at 30 ng/g. For the same compound, the concentration at 8 h in data set [2] (Sprague-Dawley, liver, 8 h, oral 3 mg/kg VK-2809, read-out: Ct Liver) was found to be 17 ng/g. Also, the Kp at 1 h in data set [2] (Sprague-Dawley, liver/plasma, 1 h, oral 3 mg/kg VK-2809) worked out at 8.6. Besides, the Kp at 4 h in data set [2] (Sprague-Dawley, liver/plasma, 4 h, oral 3 mg/kg VK-2809) turned out to be 5.2. Moreover, the Kp at 8 h in data set [2] (Sprague-Dawley, liver/plasma, 8 h, oral 3 mg/kg VK-2809) was found to be 4. Further, the concentration at 1 h in data set [2] (Sprague-Dawley, plasma, 1 h, oral 3 mg/kg VK-2809, read-out: Ct Blood) worked out at 2.9 ng/g. For the same compound, the concentration at 4 h in data set [2] (Sprague-Dawley, plasma, 4 h, oral 3 mg/kg VK-2809, read-out: Ct Blood) came to 4.8 ng/g. Moreover, in data set [2] (Sprague-Dawley, plasma, 8 h, oral 3 mg/kg VK-2809, read-out: Ct Blood), the concentration at 8 h was 5.6 ng/g.
